Test results published in the supplement of paper PMC10307832.

Key:
Assay in all cases: relative viability (nuclei count vs DMSO), 5 days (fraction); higher = more cells survive
Tosedostat + Bortezomib = compound: CC(C)C[C@@H](C(=O)N[C@H](C(=O)OC1CCCC1)c1ccccc1)[C@H](O)C(=O)NO [Tosedostat] + CC(C)C[C@H](NC(=O)[C@H](Cc1ccccc1)NC(=O)c1cnccn1)B(O)O [Bortezomib] (partner 0.002 µM)
Outline: (§1)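 Values are medians from duplicate plates. Each reflects relative viability, defined as the nuclei count of treated wells over that of vehicle wells. Lung cancer cell lines in 1536-well plates were pin-tool dosed one day after seeding with one drug alone or with a fixed anchor-drug dose plus five library-drug doses (not always all listed) in √10 steps, then fixed, stained and imaged at 4× after 5 days.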

Tosedostat + Pictilisib = compound: CC(C)C[C@@H](C(=O)N[C@H](C(=O)OC1CCCC1)c1ccccc1)[C@H](O)C(=O)NO [Tosedostat] + CS(=O)(=O)N1CCN(Cc2cc3nc(-c4cccc5[nH]ncc45)nc(N4CCOCC4)c3s2)CC1 [Pictilisib] (partner 1 µM)
Outline: as §1

Tosedostat + Olaparib = compound: CC(C)C[C@@H](C(=O)N[C@H](C(=O)OC1CCCC1)c1ccccc1)[C@H](O)C(=O)NO [Tosedostat] + O=C(c1cc(Cc2n[nH]c(=O)c3ccccc23)ccc1F)N1CCN(C(=O)C2CC2)CC1 [Olaparib] (partner 8 µM)
Outline: as §1

[1] = compound: CC1=NN=C(O1)C2=NN=C(C=C2)N3CCC(CC3)OC4=C(C=CC(=C4)F)Cl + Cc1nc(Nc2ncc(C(=O)Nc3c(C)cccc3Cl)s2)cc(N2CCN(CCO)CC2)n1 [Dasatinib] (partner 0.075 µM)
Outline: as §1

Row | Cell Line | relative viability (Tosedostat + Bortezomib; first compound 0.02 µM) | relative viability (Tosedostat + Bortezomib; first compound 0.06325 µM) | relative viability (Tosedostat + Bortezomib; first compound 0.2 µM) | relative viability (Tosedostat + Bortezomib; first compound 0.6325 µM) | relative viability (Tosedostat + Bortezomib; first compound 2 µM) | relative viability (Tosedostat + Pictilisib; first compound 0.02 µM) | relative viability (Tosedostat + Pictilisib; first compound 0.06325 µM) | relative viability (Tosedostat + Pictilisib; first compound 0.2 µM) | relative viability (Tosedostat + Pictilisib; first compound 0.6325 µM) | relative viability (Tosedostat + Pictilisib; first compound 2 µM) | relative viability (Tosedostat + Olaparib; first compound 0.06325 µM) | relative viability (Tosedostat + Olaparib; first compound 0.2 µM) | relative viability (Tosedostat + Olaparib; first compound 0.6325 µM) | relative viability (Tosedostat + Olaparib; first compound 2 µM) | relative viability ([1]; first compound 0.253 µM) | relative viability ([1]; first compound 0.8 µM) | relative viability ([1]; first compound 2.53 µM) | relative viability ([1]; first compound 8 µM) | relative viability (Tosedostat + Olaparib; first compound 0.02 µM)
1 | NCI-H2085 | 1.22 | 1.14 | 1.07 | 1.03 | 0.977 | 0.445 | 0.518 | 0.512 | 0.593 | 0.481 | 0.86 | 0.784 | 0.784 | 0.782 | 0.303 | 0.234 | 0.255 | 0.227 | –
2 | NCI-H2087 | 0.902 | 0.795 | 0.802 | 0.703 | 0.688 | 1.09 | 0.791 | 0.946 | 0.529 | 0.684 | 0.562 | 0.558 | 0.339 | 0.36 | 0.597 | 0.458 | 0.581 | 0.515 | 0.698
3 | NCI-H2126 | 1.13 | 1.14 | 1.14 | 1.08 | 1.03 | 0.506 | 0.533 | 0.513 | 0.437 | 0.472 | 0.979 | 0.843 | 0.769 | 0.757 | 0.526 | 0.635 | 0.616 | 0.611 | 0.897
4 | NCI-H2228 | 1.33 | 0.948 | 0.827 | 0.896 | 0.744 | 0.438 | 0.492 | 0.347 | 0.354 | 0.217 | 0.56 | 0.518 | 0.598 | 0.272 | 0.555 | 0.412 | 0.537 | 0.405 | 0.735
5 | NCI-H2347 | 1.25 | 1.36 | 1.35 | 1.05 | 0.694 | 0.659 | 0.662 | 0.554 | 0.771 | 0.552 | 0.618 | 0.539 | 0.58 | 0.484 | – | 0.343 | 0.33 | 0.277 | 0.694
6 | NCI-H2405 | 1.04 | 0.949 | 1 | 0.937 | 0.883 | 0.578 | 0.499 | 0.478 | 0.467 | 0.445 | 0.902 | 0.856 | 0.777 | 0.697 | 0.199 | 0.207 | 0.179 | 0.181 | 0.972
7 | NCI-H3122 | 1.02 | 1.03 | 1.1 | 1.05 | 1.02 | 0.663 | 0.659 | 0.615 | 0.692 | 0.704 | 0.593 | 0.574 | 0.508 | 0.562 | 0.283 | 0.313 | 0.28 | 0.23 | 0.631
8 | PC-3 [JPC-3] | 0.819 | 0.771 | 0.823 | 0.776 | 0.552 | 0.756 | 0.771 | 0.602 | 0.576 | 0.501 | 1.11 | 1 | 0.921 | 0.747 | 0.944 | 0.813 | 0.877 | 0.852 | 1.11
9 | PC-14 | 0.79 | 0.814 | 0.896 | 0.845 | 0.944 | 0.789 | 0.647 | 0.555 | 0.385 | 0.458 | 0.256 | 0.193 | 0.152 | 0.122 | 0.264 | 0.242 | 0.283 | 0.231 | 0.264
10 | RERF-LC-KJ | 1.13 | 1.3 | 1.05 | 0.923 | 0.892 | 0.463 | 0.647 | 0.45 | 0.471 | 0.433 | 0.999 | 0.829 | 0.757 | 0.747 | 0.553 | 0.559 | 0.619 | 0.581 | 0.903
11 | SK-LU-1 | 1.33 | 1.14 | 1.15 | 0.921 | 0.718 | 0.688 | 0.728 | 0.505 | 0.604 | 0.485 | 0.45 | 0.335 | 0.391 | 0.367 | 0.166 | – | 0.0949 | 0.119 | 0.467
12 | SW 1573 | 1.1 | 0.96 | 0.938 | 0.709 | 0.949 | 0.477 | 0.485 | 0.484 | 0.485 | 0.388 | 0.42 | 0.363 | 0.372 | 0.281 | 0.452 | 0.535 | 0.459 | 0.315 | 0.493
13 | UMC-11 | 0.689 | 0.523 | 0.752 | 0.663 | 0.81 | 0.911 | 0.807 | 0.782 | 0.705 | 0.828 | 0.336 | 0.287 | 0.273 | 0.327 | 0.473 | 0.476 | 0.512 | 0.435 | 0.374
